Data reported in US10174053B2, “2 substituted cephem compounds” (Glaxo Group Limited, priority 2012, dated 2019).
Values after ≈ are worked out from the molar mass of the structure shown.

Key:
Test in all cases: In vitro antimicrobial activity, MIC by broth microdilution (CLSI)
Format in all cases: cell-based
A. baumannii JMI7 = settings: Acinetobacter baumannii, JMI7; PER-1, OXA-23, 51, ESBL and OXA-type carbapenemase producing strain; 5×10^5 cfu/mL; cation-adjusted Iso-Sensitest broth containing human Apo-transferrin; read-out: Minimum Inhibitory Concentration (MIC) A. baumannii JMI:7
Method: (§1) Compound (I) of the invention was evaluated for in vitro antimicrobial activity thereof.
(§2) Measurement of Minimum Inhibitory Concentration (MIC: μg/mL) was conducted according to CLSI (Clinical and Laboratory Standards Institute) method, and the amount of bacteria for inoculation was 5×10^5 cfu/mL, and cation-adjusted Iso-Sensitest broth containing human Apo-transferrin was used as a test medium, and the experiment was conducted using broth microdilution method. The bacteria used are listed below.

K. pneumoniae SR01358 = settings: Klebsiella pneumoniae, SR01358; KPC-2, ESBL and KPC-type carbapenemase producing strain; 5×10^5 cfu/mL; cation-adjusted Iso-Sensitest broth containing human Apo-transferrin; read-out: Minimum Inhibitory Concentration (MIC) K. pneumoniae SR01358
Method: as §1, §2

E. Coli JMI1890 = settings: Escherichia coli; PER-1, TEM-1, ESBL producing strain; 5×10^5 cfu/mL; cation-adjusted Iso-Sensitest broth containing human Apo-transferrin; read-out: Minimum Inhibitory Concentration (MIC) E. Coli JMI:1890
Method: as §1, §2

A. baumannii JMI2346 = settings: Acinetobacter baumannii, JMI2346; OXA-51, TEM, ESBL and OXA-type carbapenemase producing strain; 5×10^5 cfu/mL; cation-adjusted Iso-Sensitest broth containing human Apo-transferrin; read-out: Minimum Inhibitory Concentration (MIC) A. baumannii JMI:2346
Method: as §1, §2

**Q.** For C[C@@H]1S[C@@H]2[C@H](NC(=O)/C(=N\OC(C)(C)C(=O)[O-])c3csc(N)n3)C(=O)N2C(C(=O)[O-])=C1C[N+]1(CCNC(=O)C(=O)c2cc(O)c(O)c(F)c2)CCCC1.[Na+] [Compound I-84], which MIC (A. baumannii JMI7) is on record?
**A.** Its MIC is 1 µg/mL.

**Q.** And the MIC (K. pneumoniae SR01358)?
**A.** The MIC was at most 0.031 µg/mL.

**Q.** What about the MIC (E. Coli JMI1890) of the same compound?
**A.** The MIC was 2 µg/mL.

**Q.** And the MIC (A. baumannii JMI2346)?
**A.** Its MIC is 16 µg/mL.

**Q.** How did the MIC (A. baumannii JMI7) turn out when C[C@@H]1S[C@@H]2[C@H](NC(=O)/C(=N\OC(C)(C)C(=O)[O-])c3csc(N)n3)C(=O)N2C(C(=O)[O-])=C1C[N+]12CCC[C@H]1CN(C(=O)C(=O)c1cc(O)c(O)c(F)c1)CC2.[Na+] (some centres unmarked) [Compound I-85] was run?
**A.** The MIC was 2 µg/mL.

**Q.** What about the MIC (K. pneumoniae SR01358) of the same compound?
**A.** Its MIC is 0.25 µg/mL.

**Q.** What about the MIC (E. Coli JMI1890) of the same compound?
**A.** Its MIC is 0.5 µg/mL.

**Q.** What about the MIC (A. baumannii JMI2346) of the same compound?
**A.** The MIC was 8 µg/mL.

**Q.** C[C@@H]1S[C@@H]2[C@H](NC(=O)/C(=N\OC(C)(C)C(=O)[O-])c3csc(N)n3)C(=O)N2C(C(=O)O)=C1C[N+]1(CCNC(=O)c2cn(C3CC3)c3cc(O)c(O)c(Cl)c3c2=O)CCCC1 [Compound I-90] was tested. Which MIC (A. baumannii JMI7) did it give?
**A.** The MIC was 0.5 µg/mL (≈ 0.572 µM).

**Q.** What about the MIC (K. pneumoniae SR01358) of the same compound?
**A.** Its MIC is at most 0.031 µg/mL.

**Q.** And the MIC (E. Coli JMI1890)?
**A.** Its MIC is 1 µg/mL (≈ 1.14 µM).

**Q.** What about the MIC (A. baumannii JMI2346) of the same compound?
**A.** Its MIC is 8 µg/mL (≈ 9.16 µM).

**Q.** How did the MIC (A. baumannii JMI7) turn out when C[C@@H]1S[C@@H]2[C@H](NC(=O)/C(=N\OC(C)(C)C(=O)[O-])c3csc(N)n3)C(=O)N2C(C(=O)O)=C1C[N+]12CCC(CNC(=O)/C(=N\O)c3ccc(O)c(O)c3)(CC1)CC2 [Compound I-92] was run?
**A.** The MIC was 4 µg/mL (≈ 4.99 µM).

**Q.** And the MIC (K. pneumoniae SR01358)?
**A.** Its MIC is 0.125 µg/mL (≈ 0.156 µM).

**Q.** What about the MIC (E. Coli JMI1890) of the same compound?
**A.** Its MIC is 2 µg/mL (≈ 2.5 µM).

**Q.** And the MIC (A. baumannii JMI2346)?
**A.** Its MIC is 16 µg/mL (≈ 20 µM).

**Q.** Which results are given for C[C@@H]1S[C@@H]2[C@H](NC(=O)/C(=N\OC(C)(C)C(=O)[O-])c3csc(N)n3)C(=O)N2C(C(=O)O)=C1C[N+]12CCC(CNC(=O)/C(=N\O)c3ccc(O)c(O)c3Cl)(CC1)CC2 [Compound I-94]?
**A.** MIC (A. baumannii JMI7): 1 µg/mL (≈ 1.2 µM); MIC (K. pneumoniae SR01358): 0.063 µg/mL (≈ 0.0754 µM); MIC (E. Coli JMI1890): 0.5 µg/mL (≈ 0.599 µM); MIC (A. baumannii JMI2346): 4 µg/mL (≈ 4.79 µM)

**Q.** CO/N=C(\C(=O)NCC12CC[N+](CC3=C(C(=O)O)N4C(=O)[C@@H](NC(=O)/C(=N\OC(C)(C)C(=O)[O-])c5csc(N)n5)[C@H]4S[C@H]3C)(CC1)CC2)c1ccc(O)c(O)c1Cl [Compound I-96] was tested. Which MIC (A. baumannii JMI7) did it give?
**A.** Its MIC is 1 µg/mL (≈ 1.18 µM).

**Q.** And the MIC (K. pneumoniae SR01358)?
**A.** The MIC was at most 0.031 µg/mL.

**Q.** What about the MIC (E. Coli JMI1890) of the same compound?
**A.** The MIC was 0.125 µg/mL (≈ 0.147 µM).

**Q.** What about the MIC (A. baumannii JMI2346) of the same compound?
**A.** Its MIC is 8 µg/mL (≈ 9.42 µM).

**Q.** For C[C@@H]1S[C@@H]2[C@H](NC(=O)/C(=N\OC(C)(C)C(=O)[O-])c3csc(N)n3)C(=O)N2C(C(=O)O)=C1C[N+]12CCC(CNC(=O)/C(=N\OCC(=O)O)c3ccc(O)c(O)c3Cl)(CC1)CC2 [Compound I-98], which MIC (A. baumannii JMI7) is on record?
**A.** The MIC was 0.5 µg/mL (≈ 0.56 µM).

**Q.** What about the MIC (K. pneumoniae SR01358) of the same compound?
**A.** The MIC was at most 0.031 µg/mL.

**Q.** What about the MIC (E. Coli JMI1890) of the same compound?
**A.** The MIC was 0.063 µg/mL (≈ 0.0705 µM).

**Q.** And the MIC (A. baumannii JMI2346)?
**A.** Its MIC is 4 µg/mL (≈ 4.48 µM).

**Q.** Which results are given for C[C@@H]1S[C@@H]2[C@H](NC(=O)/C(=N\OC(C)(C)C(=O)O)c3csc(N)n3)C(=O)N2C(C(=O)O)=C1C[N+]12CCC(CNC(=O)/C(=N\OC(C)(C)C(=O)[O-])c3ccc(O)c(O)c3Cl)(CC1)CC2 [Compound I-99]?
**A.** MIC (A. baumannii JMI7): 2 µg/mL (≈ 2.17 µM); MIC (K. pneumoniae SR01358): ≤ 0.031 µg/mL; MIC (E. Coli JMI1890): 1 µg/mL (≈ 1.09 µM); MIC (A. baumannii JMI2346): 16 µg/mL (≈ 17.4 µM)

**Q.** What does the source list for C[C@@H]1S[C@@H]2[C@H](NC(=O)/C(=N\OC(C)(C)C(=O)[O-])c3csc(N)n3)C(=O)N2C(C(=O)O)=C1C[N+]12CCC(CNC(=O)c3ccc(O)c(O)c3Cl)(CC1)C2 [Compound I-100]?
**A.** MIC (A. baumannii JMI7): 0.5 µg/mL (≈ 0.642 µM); MIC (K. pneumoniae SR01358): 0.063 µg/mL (≈ 0.0809 µM); MIC (E. Coli JMI1890): 0.125 µg/mL (≈ 0.161 µM); MIC (A. baumannii JMI2346): 1 µg/mL (≈ 1.28 µM)

**Q.** Which MIC (A. baumannii JMI7) does the source give for C[C@@H]1S[C@@H]2[C@H](NC(=O)/C(=N\OC(C)(C)C(=O)[O-])c3csc(N)n3)C(=O)N2C(C(=O)O)=C1C[N+]12CCC(CNC(=O)/C(=N\OCC(=O)O)c3ccc(O)c(O)c3Cl)(CC1)C2 [Compound I-101] here?
**A.** Its MIC is 0.25 µg/mL (≈ 0.284 µM).

**Q.** And the MIC (K. pneumoniae SR01358)?
**A.** Its MIC is at most 0.031 µg/mL.

**Q.** And the MIC (E. Coli JMI1890)?
**A.** The MIC was 0.063 µg/mL (≈ 0.0716 µM).

**Q.** And the MIC (A. baumannii JMI2346)?
**A.** Its MIC is 0.5 µg/mL (≈ 0.569 µM).

**Q.** What does the source list for C[C@@H]1S[C@@H]2[C@H](NC(=O)/C(=N\OC(C)(C)C(=O)[O-])c3csc(N)n3)C(=O)N2C(C(=O)O)=C1C[N+]12CCC(CNC(=O)/C(=N\O)c3ccc(O)c(O)c3Cl)(CC1)C2 [Compound I-102]?
**A.** MIC (A. baumannii JMI7): 0.5 µg/mL (≈ 0.609 µM); MIC (K. pneumoniae SR01358): ≤ 0.031 µg/mL; MIC (E. Coli JMI1890): 0.125 µg/mL (≈ 0.152 µM); MIC (A. baumannii JMI2346): 2 µg/mL (≈ 2.44 µM)

**Q.** For CO/N=C(\C(=O)NCC12CC[N+](CC3=C(C(=O)O)N4C(=O)[C@@H](NC(=O)/C(=N\OC(C)(C)C(=O)[O-])c5csc(N)n5)[C@H]4S[C@H]3C)(CC1)C2)c1ccc(O)c(O)c1Cl [Compound I-104], which MIC (A. baumannii JMI7) is on record?
**A.** The MIC was 1 µg/mL (≈ 1.2 µM).

**Q.** And the MIC (K. pneumoniae SR01358)?
**A.** The MIC was at most 0.031 µg/mL.

**Q.** What about the MIC (E. Coli JMI1890) of the same compound?
**A.** The MIC was 0.125 µg/mL (≈ 0.15 µM).

**Q.** And the MIC (A. baumannii JMI2346)?
**A.** Its MIC is 1 µg/mL (≈ 1.2 µM).

**Q.** How did the MIC (A. baumannii JMI7) turn out when C[C@@H]1S[C@@H]2[C@H](NC(=O)/C(=N\OC(C)(C)C(=O)[O-])c3csc(N)n3)C(=O)N2C(C(=O)[O-])=C1C[N+]12CCC(CNC(=O)C(=O)c3ccc(O)c(O)c3)(CC1)CC2.[Na+] [Compound I-107] was run?
**A.** Its MIC is 2 µg/mL.

**Q.** And the MIC (K. pneumoniae SR01358)?
**A.** The MIC was at most 0.031 µg/mL.

**Q.** What about the MIC (E. Coli JMI1890) of the same compound?
**A.** The MIC was 0.5 µg/mL.

**Q.** What about the MIC (A. baumannii JMI2346) of the same compound?
**A.** The MIC was 4 µg/mL.

**Q.** Which MIC (A. baumannii JMI7) does the source give for C[C@@H]1S[C@@H]2[C@H](NC(=O)/C(=N\OC(C)(C)C(=O)[O-])c3csc(N)n3)C(=O)N2C(C(=O)[O-])=C1C[N+]12CCC(CC1)N(C(=O)C(=O)c1ccc(O)c(O)c1)CC2.[Na+] [Compound I-108] here?
**A.** Its MIC is 0.5 µg/mL.

**Q.** What about the MIC (K. pneumoniae SR01358) of the same compound?
**A.** The MIC was at most 0.031 µg/mL.

**Q.** What about the MIC (E. Coli JMI1890) of the same compound?
**A.** The MIC was 0.5 µg/mL.

**Q.** What about the MIC (A. baumannii JMI2346) of the same compound?
**A.** The MIC was 2 µg/mL.
